Test results published in US20080176907A1, “NOS Inhibitors For Treatment Of Motor Deficit Disorders” (Northwestern University, priority 2006, published 2008).

Legend:
[1] = system: hypoxia-ischemia of rabbit fetuses; test: uterine ischemia, global hypoxia-ischemia of rabbit fetuses, neurobehavioral examination of P1 kits; details: for number of normal postnatal P1 kits: compared to saline-treated dams; for protection against HI-fetal brain injury: comparison with 7-NI, p<0.05 Fisher's Exact Test; for permeability to the fetal brain: maternal administration
[2] = target: iNOS (Mus musculus, UniProt P29477); test: biochemical
[3] = target: nNOS (Rattus norvegicus, UniProt P29476); details: read-out: Ki nNOS
[4] = effect of maternal administration on blood pressure and heart rate in E22 rabbit dams; assay type: in vivo, New Zealand white rabbit
Procedure: Because of the importance of eNOS to the regulation of cardiovascular activity, the effect of maternal administration of 4 and 5 on blood pressure in 22 day-gestation (E22) New Zealand white rabbit dams was determined. There was no effect on heart rate or on systolic or diastolic blood pressure by treatment with 4 or 5.

[5] = system: whole body ischemia; details: in vivo; cited from earlier work
[6] = system: total constitutive NOS activity (both nNOS and eNOS) in fetal brain homogenates; test: NOS activity and NOx levels in fetal brain after maternal administration; assay type: in vivo; details: E22 rabbit dams
From the text: The NOS activity assay in fetal brain homogenates assessed total constitutive NOS activity (i.e., both nNOS and eNOS). […] Therefore changes in NOS activity should correspond to changes in nNOS activity. […] The corresponding decrease in the NO concentration also indicated strong NOS inhibition had occurred.

[7] = Paudler and Blewitt, 1966; cited from earlier work

Chain of iNOS (P29477 whole entry): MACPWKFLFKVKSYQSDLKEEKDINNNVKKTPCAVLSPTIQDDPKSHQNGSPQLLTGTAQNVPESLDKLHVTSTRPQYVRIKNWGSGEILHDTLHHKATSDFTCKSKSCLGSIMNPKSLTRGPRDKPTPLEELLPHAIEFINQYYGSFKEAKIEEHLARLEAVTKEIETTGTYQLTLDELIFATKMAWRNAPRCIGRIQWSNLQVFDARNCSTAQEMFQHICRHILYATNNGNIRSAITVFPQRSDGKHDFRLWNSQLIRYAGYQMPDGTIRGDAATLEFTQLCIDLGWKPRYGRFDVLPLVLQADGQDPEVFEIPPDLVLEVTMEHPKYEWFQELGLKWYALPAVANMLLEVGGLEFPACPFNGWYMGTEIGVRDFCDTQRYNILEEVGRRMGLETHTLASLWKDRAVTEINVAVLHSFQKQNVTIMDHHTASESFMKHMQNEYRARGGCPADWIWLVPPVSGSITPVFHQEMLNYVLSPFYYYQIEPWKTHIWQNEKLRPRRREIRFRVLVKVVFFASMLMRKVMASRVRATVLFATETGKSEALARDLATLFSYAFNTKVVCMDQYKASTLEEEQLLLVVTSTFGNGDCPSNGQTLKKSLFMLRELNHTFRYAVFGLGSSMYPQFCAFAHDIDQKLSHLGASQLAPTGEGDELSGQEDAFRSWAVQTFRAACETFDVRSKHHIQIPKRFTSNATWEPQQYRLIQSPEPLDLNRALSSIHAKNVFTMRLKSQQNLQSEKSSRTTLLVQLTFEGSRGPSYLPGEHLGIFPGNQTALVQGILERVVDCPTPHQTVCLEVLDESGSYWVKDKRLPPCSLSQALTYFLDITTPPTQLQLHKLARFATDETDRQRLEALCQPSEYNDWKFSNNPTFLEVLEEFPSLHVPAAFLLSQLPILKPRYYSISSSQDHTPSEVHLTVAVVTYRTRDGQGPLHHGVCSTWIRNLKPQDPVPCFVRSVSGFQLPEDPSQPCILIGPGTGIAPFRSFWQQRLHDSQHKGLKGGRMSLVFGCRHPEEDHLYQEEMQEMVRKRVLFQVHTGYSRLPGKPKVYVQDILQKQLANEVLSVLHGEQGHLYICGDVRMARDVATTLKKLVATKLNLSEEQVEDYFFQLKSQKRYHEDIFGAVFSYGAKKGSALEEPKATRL

## O=[N+]([O-])c1cccc2cn[nH]c12 [7-NI, 7-nitroindazole, reference compound]
[1]; rabbit, in vivo
  incidence of fetal death (dead/total fetuses): 10/38
  incidence of fetal death (stillborn): 26%

## N=C(NCCC[C@H](N)C(=O)N[C@H]1CN[C@H](C(N)=O)C1)N[N+](=O)[O-] [compound 3]
[2]
  Ki: 29 µM
[3]
  Ki: 0.1 µM

## Cc1cc(N)nc(C[C@H]2CNC[C@H]2NCCNCCc2ccccc2)c1 (relative stereo) [JI-6]
[1]; Dose 200 ki × 2, Age 22
  Normal (number of kits): 9

## N=C(NCCC[C@H](N)C(=O)O)N[N+](=O)[O-] [εNNA, L-N^ω-nitroarginine]
[2]
  Ki: 4.55 µM

## Cc1cc(N)nc(C[C@H]2CNC[C@H]2NCCNCc2ccc(Cl)cc2)c1 (racemic) [(±)-4]
[4]
  effect on heart rate: no effect
  effect on systolic or diastolic blood pressure: no effect
[1]; 0/49 is stated for either 4 or 5
  incidence of fetal death (dead/total fetuses): 0/49
[1]; Dose 75 ki × 2, Age 22
  Normal (number of kits): 9
  Severe (number of kits): 2
[1]; Dose 75 ki × 2, Age 25
  Severe (number of kits): 2
[1]; Dose 75 ki × 2, Age 29
  Normal (number of kits): 10
[1]
  number of normal postnatal P1 kits: substantially larger number
  protection against HI-fetal brain injury: superior to 7-NI
  permeability to the fetal brain: permeable
[1]; inhibitor 30 min prior to and immediately after uterine ischemia
  fetal/neonatal deaths: no deaths

## FC(F)(F)c1ccccc1-n1ccnc1 [TRIM]
[5]
  outcome following whole body ischemia: worse outcome

## Cc1cc(N)nc(C[C@H]2CNC[C@H]2NCCNCCc2cccc(F)c2)c1 (racemic) [(±)-5]
[4]
  effect on heart rate: no effect
  effect on systolic or diastolic blood pressure: no effect
[6]; after maternal treatment
  NO concentration (NOx) in fetal brain: decrease
[6]; shortly after acute maternal treatment
  NOS activity in fetal brain: NOS inhibition was observed
[1]; administered post-ischemia
  effect when administered post-ischemia: no effect
[1]
  number of normal postnatal P1 kits: substantially larger number
  protection against HI-fetal brain injury: superior to 7-NI
  permeability to the fetal brain: permeable
[1]; rabbit, in vivo
  fetal/neonatal deaths: no deaths
  incidence of fetal death (dead/total fetuses): 0/49

## Cc1cc(C)nc(N)c1 [2-amino-4,6-dimethylpyridine]
[7]
  pKa: 7.12
